We go through 29 compounds from US10499641B2 (priority 2010, dated 2019).

Structures are written as SMILES.

One series relates to Plasmopara viticola. Put plainly: Plasmopara test (grapevine)/protective. In kind it is in vivo. The note with it: young grapevine plants, sprayed, active ingredient concentration 10 ppm, evaluation 6 days after inoculation; 100% = no infection. The procedure: Plasmopara Test (Grapevine)/Protective
• Solvent: 24.5 parts by weight of acetone • 24.5 parts by weight of dimethylacetamide • Emulsifier: 1 part by weight of alkylaryl polyglycol ether
[To produce an appropriate active ingredient formulation, 1 part by weight of active ingredient is mixed with the specified amounts of solvent and emulsifier, and the concentrate is diluted with water to the desired concentration.
To test for protective efficacy, young plants are sprayed with the active ingredient formulation at the stated application rate. After the spray coating has dried on, the plants are inoculated with an aqueous spore suspension of Plasmopara viticola and then remain in an incubation cabin at approx. 20° C. and 100% relative air humidity for 1 day. Subsequently, the plants are placed in a greenhouse at approx. 21° C. and approx. 90% air humidity for 4 days. The plants are then moistened and placed in an incubation cabin for 1 day.
Evaluation follows 6 days after the inoculation. 0% means an efficacy which corresponds to that of the control, whereas an efficacy of 100% means that no infection is observed.
In this test, the following inventive compounds show, at an active ingredient concentration of 10 ppm, an efficacy of 70% or more: […]

For a further series, the system named is Peronospora brassicae. Put plainly: Peronospora test (oilseed rape seeds)/seed treatment. In kind it is in vivo. The note with it: dose 50 g/dt, 14-day-old plants inoculated, incubated 7 days, infected leaf area, 100% = no disease. The procedure: Peronospora Test (Oilseed Rape Seeds)/Seed Treatment
The test was conducted under greenhouse conditions.
Oilseed rape seeds treated with an inventive active compound or a combination of inventive active compounds dissolved in N-methyl-2-pyrrolidone and diluted with water to the desired dose were sown in 6*6 cm vessels. The vessels contain 4 cm of a 1:1 mixture of steam-treated field soil and sand. The plants grew at 10° C.
14-day-old plants were inoculated with an aqueous spore suspension of Peronospora brassicae. The vessels containing the plants were incubated in a greenhouse at a temperature of 15° C. and a relative air humidity of 100% for 7 days.
The assessment of the test included the evaluation of the infected leaf area per plant. 0% means an efficiency corresponding to that of the control, while an efficiency of 100% means that no disease is observed.

A further series concerns Phytophthora infestans. In kind it is in vivo. To be noted: young tomato plants, sprayed, active ingredient concentration 100 ppm, inoculated 1 day after treatment, evaluation 7 days after inoculation; 100% = no infection.

On to `O=C(Cn1nc(C(F)F)cc1C(F)F)N1CCC(c2nc(C3=NOC(c4ccccc4C=NO)C3)cs2)CC1` (mixture of isomers) [Example I-4], for which the Eff. % with Plasmopara viticola turned out to be 100%; in the series with Peronospora brassicae it was 92%; in the series on Phytophthora infestans, 100%.

As to `Cc1cc(C(F)(F)F)nn1CC(=O)N1CCC(c2nc(C3=NOC(c4ccccc4C=NO)C3)cs2)CC1` (mixture of isomers) [Example I-38], the results for the Eff. % with Plasmopara viticola, in the series on Peronospora brassicae and in the series with Phytophthora infestans were 95%, 86% and 100%, respectively.

Usually chromatographic logP stands for lipophilicity estimated from chromatographic retention. Higher therefore signals higher lipophilicity. As for `O=C(Cn1nc(C(F)F)cc1C(F)F)N1CCC(c2nc(C3=NOC(c4ccccc4OCC#Cc4cccc5ccccc45)C3)cs2)CC1` (stereo not shown) [Example I-2, 2-[3,5-Bis(difluoromethyl)-1H-pyrazol-1-yl]-1-(4-{4-[5-(2-{[3-(1-naphthyl)prop-2-yn-1-yl]oxy}phenyl)-4,5-dihydro-1,2-oxazol-3-yl]-1,3-thiazol-2-yl}piperidin-1-yl)ethanone], the chromatographic logP in the series “physchem” (pH 2.7) is 4.81; in “physchem” (pH 7.8), 4.68. In the series on Phytophthora infestans, this compound returned an Eff. % of 100%.

As to `CC(=NO)c1ccccc1C1CC(c2csc(C3CCN(C(=O)Cn4nc(C(F)(F)F)cc4C)CC3)n2)=NO1` (stereo not shown) [Example I-40, 1-[4-(4-{5-[2-(N-Hydroxyethanimidoyl)phenyl]-4,5-dihydro-1,2-oxazol-3-yl}-1,3-thiazol-2-yl)piperidin-1-yl]-2-[5-methyl-3-(trifluoromethyl)-1H-pyrazol-1-yl]ethanone], the Eff. % in the series with Plasmopara viticola is recorded as 90%; with Phytophthora infestans it was 100%. The chromatographic logP in “physchem” (pH 2.7) turned out to be 2.92.

For the compound `CON=Cc1cccc(F)c1C1CC(c2csc(C3CCN(C(=O)Cn4nc(C(F)F)cc4C(F)F)CC3)n2)=NO1` (stereo not shown) [Example I-60], the Eff. % came out at 100% in the series with Plasmopara viticola, 95% in the series with Peronospora brassicae and 84% in the series with Phytophthora infestans.

For the compound `Cc1cc(C(F)(F)F)nn1CC(=O)N1CCC(c2nc(C3=NOC(c4ccccc4OS(=O)(=O)C4CC4)C3)cs2)CC1` (stereo not shown) [Example I-61], the Eff. % in the series on Plasmopara viticola came to 100%; in the series with Peronospora brassicae it was 90%; in the series on Phytophthora infestans, 89%.

Take `Cc1cc(C(F)(F)F)nn1CC(=O)N1CCC(c2nc(C3=NOC(c4ccccc4OS(C)(=O)=O)C3)cs2)CC1` (stereo not shown) [Example I-62]: the Eff. % in the series with Plasmopara viticola came to 100%; with Peronospora brassicae, 90%; in the series with Phytophthora infestans it was 89%.

For the compound `CCS(=O)(=O)Oc1ccccc1C1CC(c2csc(C3CCN(C(=O)Cn4nc(C(F)F)cc4C(F)F)CC3)n2)=NO1` (stereo not shown) [Example I-65], the Eff. % worked out at 100% in the series with Plasmopara viticola, 90% in the series with Peronospora brassicae and 100% in the series on Phytophthora infestans.

With `Cc1cc(C(F)(F)F)nn1CC(=O)N1CCC(c2nc(C3=NOC(c4cccc(F)c4OS(=O)(=O)C4CC4)C3)cs2)CC1` (stereo not shown) [Example I-114], the Eff. % in the series with Plasmopara viticola is reported as 100%; in the series on Phytophthora infestans it was 94%.

On to `O=C(Cn1nc(C(F)F)cc1C(F)F)N1CCC(c2nc(C3=NOC(c4ccccc4OS(=O)(=O)C(F)(F)F)C3)cs2)CC1` (stereo not shown) [Example I-115], for which the Eff. % turned out to be 100% in the series on Plasmopara viticola and 88% in the series on Phytophthora infestans.

As to `C=CC(=O)Oc1ccccc1C1CC(c2csc(C3CCN(C(=O)Cn4nc(C(F)F)cc4C(F)F)CC3)n2)=NO1` (stereo not shown) [Example I-116], the Eff. % is given as 100% in the series on Plasmopara viticola and 98% in the series with Phytophthora infestans.

As to `C#CCN(C=O)c1ccccc1C1CC(c2csc(C3CCN(C(=O)Cn4nc(C(F)F)cc4C(F)F)CC3)n2)=NO1` (stereo not shown) [Example I-117], the Eff. % in the series with Plasmopara viticola is given as 96%; in the series with Phytophthora infestans it was 79%.

For `CON=Cc1cccc(F)c1C1CC(c2csc(C3CCN(C(=O)Cn4nc(C(F)(F)F)cc4C)CC3)n2)=NO1` (stereo not shown) [Example I-118], the results for the Eff. % in the series with Plasmopara viticola and with Phytophthora infestans were 100% and 95%, respectively.

For the compound `CCS(=O)(=O)Oc1ccccc1C1CC(c2csc(C3CCN(C(=O)Cn4nc(C(F)(F)F)cc4C)CC3)n2)=NO1` (stereo not shown) [Example I-119], the Eff. % in the series with Plasmopara viticola worked out at 100%; in the series with Phytophthora infestans, 89%.

For `CSCOc1ccccc1C1CC(c2csc(C3CCN(C(=O)Cn4nc(C(F)(F)F)cc4C)CC3)n2)=NO1` (stereo not shown) [Example I-120], the Eff. % in the series with Plasmopara viticola is 95%; with Phytophthora infestans, 89%.

Regarding `N#CCN(C=O)c1ccccc1C1CC(c2csc(C3CCN(C(=O)Cn4nc(C(F)F)cc4C(F)F)CC3)n2)=NO1` (stereo not shown) [Example I-121], the Eff. % in the series on Plasmopara viticola amounted to 98%; with Phytophthora infestans, 100%.

Regarding `O=CNc1ccccc1C1CC(c2csc(C3CCN(C(=O)Nc4cc(C(F)F)ccc4C(F)F)CC3)n2)=NO1` (stereo not shown) [Example I-122], the results for the Eff. % in the series on Plasmopara viticola and in the series with Phytophthora infestans were 89% and 97%, respectively.

As to `O=CNc1ccccc1C1CC(c2csc(C3CCN(C(=O)Cc4cc(C(F)F)ccc4C(F)F)CC3)n2)=NO1` (stereo not shown) [Example I-123], the Eff. % was found to be 73% in the series on Plasmopara viticola and 100% in the series with Phytophthora infestans.

Take `CS(=O)(=O)Oc1ccccc1C1CC(c2csc(C3CCN(C(=O)Cn4nc(C(F)F)cc4C(F)F)CC3)n2)=NO1` (stereo not shown) [Example I-124]: the Eff. % with Plasmopara viticola, in the series on Peronospora brassicae and with Phytophthora infestans was 100% each time.

As to `Cc1cc(C(F)(F)F)nn1CC(=O)N1CCC(c2nc(C3=NOC(c4ccccc4OS(=O)(=O)C(F)(F)F)C3)cs2)CC1` (stereo not shown) [Example I-125], the Eff. % in the series on Plasmopara viticola was 100%; in the series on Phytophthora infestans, 89%.

For the compound `CN(C)C(=S)c1ccccc1C1CC(c2csc(C3CCN(C(=O)Cn4nc(C(F)F)cc4C(F)F)CC3)n2)=NO1` (stereo not shown) [Example I-127], the Eff. % with Plasmopara viticola turned out to be 96%; in the series on Phytophthora infestans, 97%.

Consider `COC(=O)COc1ccc(C2CC(c3csc(C4CCN(C(=O)Cn5nc(C(F)F)cc5C(F)F)CC4)n3)=NO2)cc1` (stereo not shown) [Example I-128], for which the Eff. % in the series with Plasmopara viticola amounted to 93%; in the series with Phytophthora infestans, 90%.

On to `O=C(Oc1ccccc1C1CC(c2csc(C3CCN(C(=O)Cn4nc(C(F)F)cc4C(F)F)CC3)n2)=NO1)c1cccc(F)c1` (stereo not shown) [Example I-129], for which the Eff. % in the series with Plasmopara viticola and in the series with Phytophthora infestans was 98% in each case.

For `O=C(Oc1ccccc1C1CC(c2csc(C3CCN(C(=O)Cn4nc(C(F)F)cc4C(F)F)CC3)n2)=NO1)c1ccccc1F` (stereo not shown) [Example I-130], the Eff. % in the series with Plasmopara viticola and with Phytophthora infestans was 100% each time.

As to `O=C(Oc1ccccc1C1CC(c2csc(C3CCN(C(=O)Cn4nc(C(F)F)cc4C(F)F)CC3)n2)=NO1)c1ccccc1` (stereo not shown) [Example I-131], the Eff. % with Plasmopara viticola was 94%; with Phytophthora infestans, 100%.

With `O=C(Oc1ccccc1C1CC(c2csc(C3CCN(C(=O)Cn4nc(C(F)F)cc4C(F)F)CC3)n2)=NO1)c1ccc(F)cc1` (stereo not shown) [Example I-132], the figures for the Eff. % in the series with Plasmopara viticola and with Phytophthora infestans were 96% and 100%, respectively.

Regarding `C[Si](C)(C)C#Cc1ccccc1C1CC(c2csc(C3CCN(C(=O)Cn4nc(C(F)F)cc4C(F)F)CC3)n2)=NO1` (stereo not shown) [Example I-133], the Eff. % with Plasmopara viticola is given as 85%; in the series with Phytophthora infestans, 100%.

With `C#CCOCc1ccccc1C1CC(c2csc(C3CCN(C(=O)Cn4nc(C(F)F)cc4C(F)F)CC3)n2)=NO1` (stereo not shown) [Example I-138], the Eff. % with Plasmopara viticola came out at 98%; in the series with Phytophthora infestans, 93%.

With `Cc1cc(C(F)(F)F)nn1CC(=O)N1CCC(c2nc(C3=NOC(c4ccccc4OCC#N)C3)cs2)CC1` (stereo not shown) [Example I-140], the Eff. % in the series on Plasmopara viticola came out at 100%; in the series on Phytophthora infestans, 84%.
